Assay results taken from patent publication US6437138B1, “3-pyridyloxymethyl heterocyclic ether compounds useful in controlling chemical synaptic transmission” (priority 1996, dated 2002).
Structures can show the parent of a compound that is named as a salt.

Experiments:
[1] = target: neuronal nicotinic cholinergic channels in IMR-32 cells (Homo sapiens, UniProt P30926+P32297); assay: 86Rb+ efflux in IMR-32 cells (activation, or inhibition of efflux elicited by (S)-nicotine); format: cell-based; settings: for inhibition at 1 µM / inhibition at 10 µM / Emax: IMR-32; for inhibition at 10 µM: single dose 10 μM; for Emax: read-out: IMR-32 maximal response
From the text: For the purpose of directly evaluating the ability of test compounds to functionally activate or inhibit certain subtypes of neuronal nicotinic cholinergic channels, an assay to determine ^86Rb^+Efflux in IMR-32 cells was employed (Protocol B below).
B. Protocols for the Determination of Functional Effects of Cholinerzic Channel Receptor Ligands on Synaptic Transmission
Cells of the IMR-32 human neuroblastoma clonal cell line (ATCC, Rockville, Md.) were maintained in a log phase of growth according to established procedures (Lukas, 1993). Experimental cells were seeded at a density of 500,000 cells/ml into a 24-well tissue culture dish. Plated cells were allowed to proliferate for at least 48 hours before loading with 2 μCi/ml of ^86Rb^+ (35 Ci/mmol) overnight at 37° C. The ^86Rb^+ efflux assays were performed according to previously published protocols (Lukas, R. J., J. Pharmacol. Exp. Ther., 265: 294-302, 1993) except serum-free Dulbecco's Modified Eagle's Medium was used during the ^86Rb^+ loading, rinsing, and agonist-induced efflux steps.
EC50 data and maximal responses (reported as percent relative to the response elicited by 100 μM (S)-nicotine) are shown for selected compounds of the invention. The inhibition data (given for a larger number of compounds) reflect inhibition of the efflux elicited by 100 μM (S)-nicotine for either a single dose (% inhibition at 1 μM or at 10 μM) or over a range of doses (IC50 of inhibition). […] This finding is in agreement with the results of others who have linked dopamine release, which is dependent upon the ion flux in synaptic transmission, to binding at nicotinic receptors (cf., for example, Lippiello and Caldwell, U.S. Pat. No. 5,242,935, issued Sep. 7, 1993; Caldwell and Lippiello, U.S. Pat. No. 5,248,690, issued Sep. 28, 1993; and Wonnacott et al., Prog. Brain Res., 79: 157-163 (1989)).

[2] = inhibition of the efflux elicited by 100 μM (S)-nicotine, single dose 1 μM
[3] = inhibition of the efflux elicited by 100 μM (S)-nicotine
[4] = 86Rb+ efflux, percent relative to the response elicited by 100 μM (S)-nicotine

Row | Compound | melting point | also measured
1 | CCCCC#Cc1cncc(OC[C@@H]2CCCN2C)c1 [Example 4, 5-Hexynyl-3-(1-methyl-2-(S)-pyrrolidinylmethoxy)pyridine Dihydrochloride] |  | inhibition at 1 µM [1, 2]: 55%
2 | CN1CCC[C@H]1COc1cncc(C=Cc2ccncc2)c1 [Example 13, 5-(2-(4-Pyridinyl)ethenylyl)-3-((1-methyl-2-(S)-pyrrolidinylmethoxy)pyridine Triihydrochloride] |  | inhibition at 1 µM [1, 2]: 50%
3 | CN1CCC[C@H]1COc1cncc(C#CCCCC#N)c1 [Example 14, (5-(5-Cyano-1-pentynyl-3-(1-methyl-2-(S)-pyrrolidinylmethoxy)pyridine Dihydrochloride] |  | inhibition at 1 µM [1, 2]: 50%
4 | COC(=O)CCc1cncc(OC[C@@H]2CCCN2C)c1 [Example 15, 5-(2-(Methoxycarbonyl)ethyl)-3-(1-methyl-2-(S)-pyrrolidinylmethoxy)pyridine Dihydrochloride] |  | inhibition at 1 µM [1, 2]: 16%; inhibition at 10 µM [1, 3]: 83%
5 | COC(=O)C=Cc1cncc(OC[C@@H]2CCCN2C)c1 [Example 16, 5-(2-(Methoxycarbonyl)ethenyl-3-(1-methyl-2-(S)-pyrrolidinylmethoxy)pyridine Dihydrochloride] |  | inhibition at 1 µM [1, 2]: 6%
6 | CN1CCC[C@H]1COc1cncc(C#CCCCc2ccccc2)c1 [Example 17, 5-(5-Phenyl-1-pentynyl)-3-(1-methyl-2-(S)-pyrrolidinylmethoxy)pyridine Dihydrochloride] |  | inhibition at 1 µM [1, 2]: 32%; inhibition at 10 µM [1, 3]: 100%
7 | CCCC(=O)C=Cc1cncc(OC[C@@H]2CCCN2C)c1 [Example 22, 5-(3-oxo-1-Hexenyl)-3-(1-methyl-2-(S)-pyrrolidinylmethoxy)pyridinine Dihydrochloride] |  | inhibition at 1 µM [1, 2]: 44%
8 | CN1CCC[C@H]1COc1cncc(C#CCCCCO)c1 [Example 28, 5-(6-Hydroxy-1-hexynyl)-3-(1-methyl-2-(S)-pyrrolidipylmethoxy)pyridine Dihydrochloride] |  | inhibition at 1 µM [1, 2]: 20%
9 | CN1CCC[C@H]1COc1cncc(C#CC(C)(C)C)c1 [Example 47, 5-(3,3-Dimethylbutynyl)-3-(1-methyl-2-(S)-pyrrolidinylmethoxy)pyridine Dihydrochloride] |  | inhibition at 1 µM [1, 2]: 66%
10 | CCCCCCC#Cc1cncc(OC[C@@H]2CCCN2C)c1 [Example 49, 5-Octynyl-3-(1-methyl-2-(S)-pyrrolidinylmethoxy)pyridine Dihydrochloride] |  | inhibition at 1 µM [1, 2]: 33%
11 | Cl.Cl.c1ccc(-c2cncc(OC[C@@H]3CCN3)c2)cc1 [Example 56, 5-Phenyl-3-(2-(S)-azetidinylmethoxy)pyridine Dihydrochloride] |  | IMR-32 maximal response [1, 4]: 20%; % Inhibition @ 1 μM [1, 2]: 16%
12 | Clc1ncc(OC[C@@H]2CCN2)cc1-c1ccccc1 [Example 67, 5-Phenyl-6-chloro-3-(2-(S)-azetidinylmethoxy)pyridine Hidrochloride] |  | Emax [1, 4]: 90%
13 | CN1CCC[C@@H]1COc1cnc(Cl)c(-c2ccccc2)c1 [Example 69, 5-Phenyl-6-chloro-3-(1-methyl-2-(R)-pyrrolidinylmethoxy)pyridine Dihydrochloride] |  | Emax [1, 4]: 6%
14 | Clc1ncc(OC[C@H]2CCCN2)cc1C=Cc1ccncc1 [Example 81, 5-(2-(4-Pyridinyl)ethenyl)-6-chloro-3-(2-(R)-pyrrolidinylmethoxy)pyridine Dihydrochloride] |  | Emax [1, 4]: 32%
15 | CN1CC[C@H]1COc1cnc(Cl)c(-c2cncnc2)c1.Cl [Example 170, 6-Chloro-3-(1-methyl-2-(S)-azetidinylmethoxy)-5-(5-pyrimidinyl)pyridine Hydrochloride] | 143 to 144 °C | 
16 | Cl.Cl.c1ncc(-c2cncc(OC[C@@H]3CCN3)c2)cn1 [Example 171, 3-(2-(S)-Azetidinylmethoxy)-5-(5-pyrimidinyl)pyridine Dihydrochloride] | 185 °C (dec.) | 
17 | Cl.Cl.Clc1ncc(OC[C@@H]2CCN2)cc1-c1cncnc1 [Example 172, 3-(2-(S)-Azetidinylmethoxy)-6-chloro-5-(5-pyrimidinyl)pyridine Dihydrochloride] | 144 °C (dec.) | 
18 | Cl.Clc1ncc(OC[C@H]2CCCN2)cc1-c1cncnc1 [Example 173, 6-Chloro-5-(5-pyrimidinyl)-3-(2-(R)-pyrrolidinylmethoxy)pyridine Hydrochloride] | 210 °C (dec.) | 
19 | Cl.Cl.Cl.c1ncc(-c2cncc(OC[C@@H]3CCCN3)c2)cn1 [Example 174, 5-(5-Pyrimidinyl)-3-(2-(S)-pyrrolidinylmethoxy)pyridine Trihydrochloride] | 110 to 112 °C | 

Row | Compound | melting point | also measured
20 | C#Cc1cc(OC[C@@H]2CCN2)cnc1Cl.Cl [Example 175, 3-(2-(S)-Azetidinylmethoxy)-6-chloro-5-ethynylpyridine Hydrochloride] | 90 °C (dec.) | 
21 | C=CCc1cncc(OC[C@@H]2CCCN2C)c1.Cl.Cl [Example 177, 5-Allyl-3-(1-methyl-2-(S)-pyrrolidinylmethoxy)pyridine Dihydrochloride] | 65 to 67 °C | 
22 | C=CCc1cc(OC[C@@H]2CCN2)cnc1Cl.Cl [Example 178, 5-Allyl-3-(2-(S)-azetidinylmethoxy)-6-chloropyridine Hydrochloride] | 90 to 92 °C | 
23 | C=CCc1cc(OC[C@@H]2CCN2C)cnc1Cl.Cl [Example 179, 5-Allyl-3-(1-methyl-2-(S)-azetidinylmethoxy)-6-chloropyridine Hydrochloride] | 109 to 111 °C | 
24 | CN1CCC[C@H]1COc1cnc(Cl)c(-c2cncnc2)c1.Cl [Example 182, 6-Chloro-3-(1-methyl-2-(S)-pyrrolidinylmethoxy)-5-(5-pyrimidinyl)pyridine Hydrochloride] | 200 to 202 °C | 
25 | C=CCc1cc(OC[C@@H]2CCCN2C)cnc1Cl.Cl [Example 184, 5-Allyl-6-chloro-3-(1-methyl-2-(S)-pyrrolidinylmethoxy)pyridine Hydrochloride] | 150 to 152 °C | 
26 | C=CCc1cc(OC[C@H]2CCCN2)cnc1Cl.Cl [Example 185, 5-Allyl-6-chloro-3-(2-(R)-pyrrolidinylmethoxy)pyridine Hydrochloride] | 90 to 92 °C | 
27 | Cl.Clc1ncc(OC[C@H]2CCN2)cc1-c1ccccc1 [Example 186, 3-(2-(R)-Azetidinylmethoxy)-6-chloro-5-phenylpyridine Hydrochloride] | 143 to 145 °C | 
28 | C=Cc1ncc(OC[C@@H]2CCCN2)cc1C.Cl [Example 187, 6-Ethenyl-5-methyl-3-(2-(S)-pyrrolidinylmethoxy)pyridine Hydrochloride] | 168 to 170 °C | 
29 | C=Cc1ncc(OC[C@@H]2CCCN2C)cc1C.Cl [Example 188, 6-Ethenyl-5-methyl-3-(1-methyl-2-(S)-pyrrolidinylmethoxy)pyridine Hydrochloride] | 50 °C (dec.) | 
30 | CN1CC[C@@H]1COc1cnc(Cl)c(-c2ccccc2)c1.Cl [Example 189, 6-Chloro-3-(1-methyl-2-(R)-azetidinylmethoxy)-5-phenylpyridine Hydrochloride] | 173 to 175 °C | 
31 | C#Cc1cc(OC[C@H]2CCN2)cnc1Cl.Cl [Example 190, 3-(2-(R)-Azetidinylmethoxy)-6-chloro-5-ethynylpyridine Hydrochloride] | 155 to 157 °C | 
32 | C=Cc1cc(OC[C@@H]2CCCN2C)cnc1Cl.Cl [Example 192, 6-Chloro-5-ethenyl-3-(1-methyl-2-(S)-pyrrolidinylmethoxy)pyridine Hydrochloride] | 182 to 184 °C | 
33 | COCCOc1cncc(OC[C@@H]2CCCN2)c1.Cl.Cl [Example 197, 5-Methoxyethoxy-3-(2-(S)-pyrrolidinylmethoxy)pyridine Dihydrochloride] | 182 to 184 °C | 
34 | Cl.Cl.c1ccc(COc2cncc(OC[C@@H]3CCN3)c2)cc1 [Example 199, 3-(2-(S)-Azetidinylmethoxy)-5-benzyloxypyridine Dihydrochloride] | 172 to 174 °C | 
35 | CN1CC[C@H]1COc1cncc(OCc2ccccc2)c1.Cl [Example 200, 5-Benzyloxy-3-(1-methyl-2-(S)-azetidinylmethoxy)pyridine Hydrochloride] | 132 to 134 °C | 
36 | C=Cc1ccc(OC[C@@H]2CCN2)cn1.Cl.Cl [Example 201, 3-(2-(S)-Azetidinylmethoxy)-6-ethenylpyridine Dihydrochloride] | 102 to 104 °C | 
37 | C=Cc1ccc(OC[C@@H]2CCN2C)cn1.Cl.Cl [Example 202, 6-Ethenyl-3-(1-methyl-2-(S)-azetidinylmethoxy)pyridine Dihydrochloride] | 105 to 107 °C | 
